Article PMC8221234 (Chemical biology & drug design, 2009)

Columns and labels:
[1] = system: eIF2α phosphorylation in NIH3T3 cells; assay: UV-induced eIF2α phosphorylation in NIH3T3 cells; type: cell-based; details: compared with MEFs, data not shown
[2] = system: eIF2α phosphorylation in NIH3T3 cells; details: cited from earlier work

Oc1c2ccccc2c2c3c(cccc13)N=N2 [SP600125]
Effect on UV-induced eIF2α phosphorylation in NIH3T3 cells (qualitative) [1]: does not prevent eIF2α phosphorylation | Effect on eIF2α phosphorylation following UV irradiation (qualitative) [2]: did not prevent the phosphorylation of eIF2α
